Key:
E. carotovora-pyrE::Tn5 [1] = test: Bacterial persistence in the midgut (CFU); type: in vivo, Erwinia carotovora; conditions: coingestion of 1 nM uracil with E. carotovora-pyrE::Tn5; CFU 6 hours after ingestion
Procedure: To measure gut sustainability of E. carotovora strains (E. carotovora, E. carotovora-pyrE::Tn5, and E. carotovora-pyrE::Tn5-pyrE), a 5% sucrose solution containing approx. 10^10 cells of E. carotovora strains were orally administered to female adult Drosophila (5 to 6 days old) for 2 hours. Midguts were dissected at 6 hours after ingestion. Midguts, posterior guts, and crops of which the surfaces were sterilized were homogenized and diluted accordingly. These were smeared on a Luria-Bertani agar plate, and some of colony-forming units (CFUs) were obtained from each midgut. During the recovery experiment, the coingestion of E. carotovora-pyrE::Tn5 (+uracil) and 1 nM of uracil or the expression of an E. carotovora-pyrE::Tn5 strain, which was genetically recovered by the expression of functional pyrE genes (+pyrE), was utilized.

Ce-DUOX1 = test: ROS (DUOX-dependent H2O2) measurement in C. elegans; type: in vivo; conditions: uracil-containing media, 2 hours
Text: C. elegans were raised and maintained as disclosed in the previous research (Chavez et al., Infect Immun 77, pp. 4983-4989, 2009). As disclosed in the previous research, L1 nematodes were fed with bacteria containing Ce-DUOX1-RNAi vectors throughout the step L4 to introduce Ce-DUOX1-RNAi (Chavez et al., Infect Immun 77, pp. 4983-4989, 2009). Standard feeding system RNAi process using Ce-DUOX1-RNAi may cause a developmental disability which indicates a serious level of mortality. As disclosed in the previous research, to give a partial knock-down effect, Ce-DUOX1-RNAi bacteria were mixed with bacteria containing control RNAi at a ratio of 1:70. In the early adult stage, nematodes were obtained and washed with M9 minimal media. Nematodes (about 200 to 300 individuals) were placed in a 96-well plate comprising uracil-containing media ([…]) at 20° C. for 2 hours.
DUOX-dependent H2O2, as basically disclosed in the previous research (Chavez et al., Infect Immun 77, pp. 4983-4989, 2009), was measured at room temperature for 2 hours following addition of […] of Amplex UltraRed solution (Invitrogen) and […] of reacting buffer including 0.2 units/mL of horseradish peroxidase (Sigma). Fluorescence of each sample was measured by fluorescent microplate readers at 530 nm of excitation wavelength and 590 nm of emission wavelength. […]

E. carotovora-pyrE::Tn5 [2] = test: Gut infection and survival analysis; type: in vivo, Erwinia carotovora; conditions: coingestion of 1 nM uracil with E. carotovora-pyrE::Tn5
Text: During the late exponential phase, different bacteria (E. carotovora, E. carotovora-pyrE::Tn5, E. carotovora-pyrE::Tn5-pyrE, E. carotovora-guaA::Tn5, and E. carotovora-purC::Tn5) were obtained by the centrifugation, and the pellets were washed with PBS and suspended in a 5% sucrose solution. Without a hunger stage, to continuously provide Drosophila with bacteria while being infected, male adult Drosophila (5 to 6 days old) were moved to the bottle with filter paper soaked with a 5% sucrose solution containing different bacteria. The filter paper was changed every day. During the recovery experiment, the coingestion of E. carotovora-pyrE::Tn5 (+uracil) and 1 nM of uracil or the expression of an E. carotovora-pyrE::Tn5 strain, which was genetically recovered by the expression of functional pyrE genes (+pyrE), was utilized.

DUOX = DUOX expression by qPCR; type: in vivo, Drosophila; conditions: uracil 20 nM
Procedure: Fluorescent RT-PCR was conducted to quantify gene expression and double-stranded DNA dye and SYBR green (Perkin Elmer, Waltham, Mass., USA) were used. To detect target gene trascriptomes, Cecropin (Sense, 5′-ATGAACTTCTACAACATCTTCG-3′ (SEQ ID NO: 5); Antisense, 5′-GGCAGTTGCGGCGACATTGGCG-3′ (SEQ ID NO: 6)), Diptericin (Sense, 5′-GGCTTATCCGATGCCCGACG-3′ (SEQ ID NO: 7); Antisense, 5′-TCTGTAGGTGTAGGTGCTTCCC-3′ (SEQ ID NO: 8)), and DUOX (Sense, 5′-GCTGCACGCCAACCACAAGAGACT-3′ (SEQ ID NO: 9); Antisense, 5′-CACGCGCAGCAGGATGTAAGGTTT-3′ (SEQ ID NO: 10)) were used, and as a control group, Rp49 (Sense, 5′-AGATCGTGAAGAAGCGCACCAAG-3′ (SEQ ID NO: 11); Antisense, 5′-CACCAGGAACTTCTTGAATCCGG-3′ (SEQ ID NO: 12)) was used. SYBR green analysis was conducted by an ABI PRISM 7700 system (PE Applied Biosystems, Foster City, Calif., USA) according to the manufacturer's instructions. All of the samples were repeated three times and analyzed, and a detected amount of mRNA was normalized with mRNA in the control group. Normalized data was used to quantify the relative amount of mRNA according to cycling threshold analysis. Targeted gene expression was expressed as the relative amount of expression.

gut cells = conditions: in vivo
Procedure: To measure cell apoptosis in gut cells caused by a long-term exposure to uracil, genetically different germ-free adult Drosophila (5 to 6 days old) were maintained on the standard corn meal agar media with a supplemental 1 nM of uracil for 20 days.
Midguts of female Drosophila (20 days old) collected above were used for the analysis of cell apoptosis. Midguts were dissected in PBS, and cell apoptosis analysis was conducted by terminal deoxynucleotidyl transferase (TdT)-mediated dUDP nick end labeling method as disclosed in the previous research (Ryu et al., Science 319, pp. 777-782, 2008).
The cell apoptotic index was indicated by dividing the number of apoptotic cells with respect to the total number of cells and multiplying the value by 100.

## O=c1cc[nH]c(=O)[nH]1 [uracil]
E. carotovora-pyrE::Tn5 [1]
  prolonged midgut persistence of URA− pathogens: abolished
Ce-DUOX1
  DUOX-dependent ROS generation in C. elegans: able to activate DUOX-dependent ROS generation
E. carotovora-pyrE::Tn5 [2]
  host survival rate after URA− pathogen infection: sufficient to restore the host survival rate
DUOX
  DUOX gene induction: DUOX gene induction
Gut cells
  gut cell apoptosis after long-term ingestion of uracil: Extensive apoptosis in gut cells
